ChEMBL document CHEMBL4422644, “Synthesis and evaluation of α-aminoacyl amides as antitubercular agents effective on drug resistant tuberculosis” (Eur J Med Chem, 2019)
pIC50: −log10 of the molar value. ≈ marks a conversion by molar mass, not a printed value.

Experiments:
[1] = tested on: Mycobacterium tuberculosis; assay: Antitubercular activity against Mycobacterium tuberculosis H37Rv after 7 days by alamar blue assay; assay type: functional; conditions: 168 h
HeLa = assay: Cytotoxicity against human HeLa cells after 24 hrs by MTT assay; assay type: functional, cell-based
HepG2 = assay: Cytotoxicity against human HepG2 cells after 24 hrs by MTT assay; assay type: functional, cell-based; conditions: HepG2, 24 h
[2] = tested on: Mycobacteroides abscessus; assay: Antibacterial activity against Mycobacterium abscessus after 7 days by alamar blue assay; assay type: functional; conditions: 168 h
Klebsiella pneumoniae = assay: Antibacterial activity against Klebsiella pneumoniae ATCC BAA-1705 after 24 hrs; assay type: functional; conditions: ATCC BAA-1705, 24 h
DU-145 = assay: Cytotoxicity against human DU145 cells after 24 hrs by MTT assay; assay type: functional, cell-based; conditions: DU-145, 24 h
A549 = assay: Cytotoxicity against human A549 cells after 24 hrs by MTT assay; assay type: functional, cell-based; conditions: A549, 24 h
Pseudomonas aeruginosa = assay: Antibacterial activity against Pseudomonas aeruginosa ATCC 27853 after 24 hrs; assay type: functional; conditions: ATCC 27853, 24 h
[3] = tested on: Mycolicibacterium fortuitum; assay: Antibacterial activity against Mycobacterium fortuitum after 7 days by alamar blue assay; assay type: functional; conditions: 168 h
CHO-K1 = assay: Cytotoxicity against CHOK1 cells after 24 hrs by MTT assay; assay type: cell-based; conditions: Cricetulus griseus, CHO-K1, 24 h
[4] = Cytotoxicity against […] B16 cells after 24 hrs by MTT assay; assay type: functional, cell-based; conditions: B16, 24 h
Escherichia coli = assay: Antibacterial activity against Escherichia coli ATCC 25922 after 24 hrs; assay type: functional; conditions: ATCC 25922, 24 h
Mycobacteroides chelonae = assay: Antibacterial activity against Mycobacterium chelonae after 7 days by alamar blue assay; assay type: functional; conditions: 168 h
Acinetobacter baumannii = assay: Antibacterial activity against Acinetobacter baumannii ATCC BAA-1605 after 24 hrs; assay type: functional; conditions: ATCC BAA-1605, 24 h
MCF7 = assay: Cytotoxicity against human MCF7 cells after 24 hrs by MTT assay; assay type: functional, cell-based; conditions: MCF7, 24 h
Staphylococcus aureus = assay: Antibacterial activity against Staphylococcus aureus ATCC 29213 after 24 hrs; assay type: functional; conditions: ATCC 29213, 24 h
[5] = Selectivity index, ratio of IC50 for CHOK1 cells to MIC for Mycobacterium tuberculosis H37Rv; assay type: toxicity; conditions: hamster, read-out: Selectivity Index
[6] = Cytotoxicity against HEK cells after 24 hrs by MTT assay; assay type: cell-based; conditions: Homo sapiens, HEK293, 24 h

SMILES: Cc1cccc(N(C(=O)c2ccnc(Cl)c2)C(C(=O)NC2CCCCC2)c2ccccc2)c1C (configuration not stated)
- MIC [1]: > 100 µM

SMILES: Cc1cccc(N(C(=O)c2c(C)noc2C)C(C(=O)NC2CCCCC2)c2cccnc2)c1C (configuration not stated)
- pIC50 (HeLa): 4.85
- pIC50 (HepG2): 4.93
- MIC [2]: > 50 µM
- MIC (Klebsiella pneumoniae): > 50 µM
- pIC50 (DU-145): 4.92
- pIC50 (A549): 4.89
- MIC (Pseudomonas aeruginosa): > 50 µM
- MIC [3]: > 50 µM
- pIC50 (CHO-K1): 3.86
- pIC50 [4]: 4.49
- MIC (Escherichia coli): > 50 µM
- MIC (Mycobacteroides chelonae): > 50 µM
- MIC (Acinetobacter baumannii): > 50 µM
- pIC50 (MCF7): 5.18
- MIC (Staphylococcus aureus): > 50 µM
- selectivity ratio [5]: 21.7
- MIC [1]: 6.25 µM (≈ 2.88 µg/mL)
- pIC50 [6]: 4.11

SMILES: Cc1ccc(N(C(=O)c2sc(C)nc2C)C(C(=O)Nc2cccc3ccccc23)c2ccccc2)cc1 (configuration not stated)
- MIC [1]: > 100 µM

SMILES: Cc1cc(C)c(N(C(=O)c2sc(C)nc2C)C(C(=O)NC2CCCCC2)c2ccccc2)c(C)c1 (configuration not stated)
- pIC50 (HeLa): 4.96
- pIC50 (HepG2): 5.20
- MIC [2]: > 50 µM
- MIC (Klebsiella pneumoniae): > 50 µM
- pIC50 (DU-145): 4.93
- pIC50 (A549): 5.56
- MIC (Pseudomonas aeruginosa): > 50 µM
- MIC [3]: > 50 µM
- pIC50 (CHO-K1): 4.59
- pIC50 [4]: 4.93
- MIC (Escherichia coli): > 50 µM
- MIC (Mycobacteroides chelonae): > 50 µM
- MIC (Acinetobacter baumannii): > 50 µM
- pIC50 (MCF7): 5.45
- MIC (Staphylococcus aureus): > 50 µM
- selectivity ratio [5]: 8
- MIC [1]: 3.25 µM (≈ 1.59 µg/mL)
- pIC50 [6]: 4.29

SMILES: Cc1nc(C)c(C(=O)N(c2ccccc2)C(C(=O)NC2CCCCC2)c2cccc(Cl)c2)s1 (configuration not stated)
- MIC [1]: > 100 µM

SMILES: Cc1cccc(N(C(=O)c2ccc[nH]2)C(C(=O)NC2CCCCC2)c2cccnc2)c1C (configuration not stated)
- pIC50 (HeLa): 5.00
- pIC50 (HepG2): 5.02
- MIC [2]: > 50 µM
- MIC (Klebsiella pneumoniae): > 50 µM
- pIC50 (DU-145): 4.90
- pIC50 (A549): 4.76
- MIC (Pseudomonas aeruginosa): > 50 µM
- MIC [3]: > 50 µM
- pIC50 (CHO-K1): 3.57
- pIC50 [4]: 4.86
- MIC (Escherichia coli): > 50 µM
- MIC (Mycobacteroides chelonae): > 50 µM
- MIC (Acinetobacter baumannii): > 50 µM
- pIC50 (MCF7): 5.26
- MIC (Staphylococcus aureus): > 50 µM
- selectivity ratio [5]: 21.4
- MIC [1]: 12.5 µM (≈ 5.38 µg/mL)
- pIC50 [6]: 4.27

SMILES: Cc1ccc(N(C(=O)c2ccc[nH]2)C(C(=O)NC2CCCCC2)c2ccccc2)cc1 (configuration not stated)
- MIC [1]: 25 µM (≈ 10.4 µg/mL)

SMILES: Cc1ccc(N(C(=O)c2ccc[nH]2)C(C(=O)NC2CCCCC2)c2cccnc2)cc1 (configuration not stated)
- pIC50 (HeLa): 4.92
- pIC50 (HepG2): 4.94
- MIC [2]: > 50 µM
- MIC (Klebsiella pneumoniae): > 50 µM
- pIC50 (DU-145): 4.81
- pIC50 (A549): 4.82
- MIC (Pseudomonas aeruginosa): > 50 µM
- MIC [3]: > 50 µM
- pIC50 (CHO-K1): 3.87
- pIC50 [4]: 4.73
- MIC (Escherichia coli): > 50 µM
- MIC (Mycobacteroides chelonae): > 50 µM
- MIC (Acinetobacter baumannii): > 50 µM
- pIC50 (MCF7): 5.25
- MIC (Staphylococcus aureus): > 50 µM
- selectivity ratio [5]: 10.7
- MIC [1]: 12.5 µM (≈ 5.21 µg/mL)
- pIC50 [6]: 3.92

SMILES: Cc1nc(C)c(C(=O)N(c2cnc3ccccc3c2)C(C(=O)NC2CCCCC2)c2ccccc2)s1 (configuration not stated)
- MIC [1]: > 100 µM

SMILES: Cc1cccc(N(C(=O)c2ccncc2)C(C(=O)NC2CCCCC2)c2ccccc2)c1C (configuration not stated)
- pIC50 (HeLa): 4.86
- pIC50 (HepG2): 5.16
- MIC [2]: > 50 µM
- MIC (Klebsiella pneumoniae): > 50 µM
- pIC50 (DU-145): 4.95
- pIC50 (A549): 4.89
- MIC (Pseudomonas aeruginosa): > 50 µM
- MIC [3]: > 50 µM
- pIC50 (CHO-K1): 4.09
- pIC50 [4]: 4.91
- MIC (Escherichia coli): > 50 µM
- MIC (Mycobacteroides chelonae): > 50 µM
- MIC (Acinetobacter baumannii): > 50 µM
- pIC50 (MCF7): 5.19
- MIC (Staphylococcus aureus): > 50 µM
- selectivity ratio [5]: 13
- MIC [1]: 6.25 µM (≈ 2.76 µg/mL)
- pIC50 [6]: 4.42

SMILES: Cc1ccc(N(C(=O)c2ccc[nH]2)C(C(=O)NC2CCCCC2)c2ccncc2)cc1 (configuration not stated)
- MIC [2]: > 50 µM
- MIC (Klebsiella pneumoniae): > 50 µM
- MIC (Pseudomonas aeruginosa): > 50 µM
- MIC [3]: > 50 µM
- MIC (Escherichia coli): > 50 µM
- MIC (Mycobacteroides chelonae): > 50 µM
- MIC (Acinetobacter baumannii): > 50 µM
- MIC (Staphylococcus aureus): > 50 µM
- MIC [1]: 25 µM (≈ 10.4 µg/mL)

SMILES: Cc1ccc(C)c(N(C(=O)c2sc(C)nc2C)C(C(=O)NC2CCCCC2)c2ccccc2)c1 (configuration not stated)
- MIC [1]: > 100 µM

SMILES: Cc1ccc(N(C(=O)c2ccncc2)C(C(=O)NC2CCCCC2)c2ccncc2)cc1 (configuration not stated)
- MIC [1]: 25 µM (≈ 10.7 µg/mL)

SMILES: Cc1cccc(N(C(=O)c2ccncc2)C(C(=O)NC2CCCCC2)c2cccnc2)c1C (configuration not stated)
- pIC50 (HeLa): 4.95
- pIC50 (HepG2): 4.89
- MIC [2]: > 50 µM
- MIC (Klebsiella pneumoniae): > 50 µM
- pIC50 (DU-145): 4.69
- pIC50 (A549): 4.93
- MIC (Pseudomonas aeruginosa): > 50 µM
- MIC [3]: > 50 µM
- pIC50 (CHO-K1): 3.77
- pIC50 [4]: 4.70
- MIC (Escherichia coli): > 50 µM
- MIC (Mycobacteroides chelonae): > 50 µM
- MIC (Acinetobacter baumannii): > 50 µM
- pIC50 (MCF7): 5.21
- MIC (Staphylococcus aureus): > 50 µM
- selectivity ratio [5]: 11.3
- MIC [1]: 3.12 µM (≈ 1.38 µg/mL)
- pIC50 [6]: 4.07

SMILES: Cc1ccc(N(C(=O)c2sc(C)nc2C)C(C(=O)NC2CCCCC2)c2ccccc2Cl)cc1 (configuration not stated)
- MIC [1]: > 100 µM

SMILES: Cc1ccc(N(C(=O)c2ccncc2)C(C(=O)NC2CCCCC2)c2cccnc2)cc1 (configuration not stated)
- MIC [2]: > 50 µM
- MIC (Klebsiella pneumoniae): > 50 µM
- MIC (Pseudomonas aeruginosa): > 50 µM
- MIC [3]: > 50 µM
- MIC (Escherichia coli): > 50 µM
- MIC (Mycobacteroides chelonae): > 50 µM
- MIC (Acinetobacter baumannii): > 50 µM
- MIC (Staphylococcus aureus): > 50 µM
- MIC [1]: 25 µM (≈ 10.7 µg/mL)

SMILES: C[C@H]1COc2c(N3CCN(C)CC3)c(F)cc3c(=O)c(C(=O)O)cn1c23 [LEVOFLOXACIN]
- MIC [2]: 64 µM (≈ 23.1 µg/mL)
- MIC (Klebsiella pneumoniae): 64 µM (≈ 23.1 µg/mL)
- MIC (Pseudomonas aeruginosa): 1 µM (≈ 0.361 µg/mL)
- MIC [3]: < 0.03 µM
- MIC (Escherichia coli): < 0.03 µM
- MIC (Mycobacteroides chelonae): 0.25 µM (≈ 0.0903 µg/mL)
- MIC (Acinetobacter baumannii): 8 µM (≈ 2.89 µg/mL)
- MIC (Staphylococcus aureus): 0.25 µM (≈ 0.0903 µg/mL)

SMILES: COc1ccc(C(C(=O)NC2CCCCC2)N(C(=O)c2sc(C)nc2C)c2ccccc2)cc1 (configuration not stated)
- MIC [1]: > 100 µM

SMILES: Cc1cccc(N(C(=O)c2ccncc2)C(C(=O)NC2CCCCC2)c2ccncc2)c1C (configuration not stated)
- MIC [2]: > 50 µM
- MIC (Klebsiella pneumoniae): > 50 µM
- MIC (Pseudomonas aeruginosa): > 50 µM
- MIC [3]: > 50 µM
- MIC (Escherichia coli): > 50 µM
- MIC (Mycobacteroides chelonae): > 50 µM
- MIC (Acinetobacter baumannii): > 50 µM
- MIC (Staphylococcus aureus): > 50 µM
- MIC [1]: 25 µM (≈ 11.1 µg/mL)
